Key:
redroot pigweed = experiment: Test Example 5: herbicidal effect by foliage application, plastic box (Table 20, symbol N); format: in vivo, redroot pigweed (Amaranthus retroflexus); conditions: foliage application
In short: (§1)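 Plants were sown into sterilized diluvial soil under about 1.5 cm cover and kept in a greenhouse at 25° C. to 30° C. Fourteen days on, foliage received an even spray of the diluted emulsion. Herbicidal or crop effect was judged three weeks afterwards.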

Italian ryegrass = experiment: Test Example 5: herbicidal effect by foliage application, plastic box (Table 20, symbol K); format: in vivo, Italian ryegrass (Lolium multiflorum); conditions: foliage application
In short: as §1

green foxtail = experiment: Test Example 5: herbicidal effect by foliage application, plastic box (Table 20, symbol G); format: in vivo, green foxtail (Setaria viridis); conditions: foliage application
In short: as §1

persian speedwell = experiment: Test Example 5: herbicidal effect by foliage application, plastic box (Table 20, symbol R); format: in vivo, Persian speedwell (Veronica persica); conditions: foliage application
In short: as §1

windgrass = experiment: Test Example 5: herbicidal effect by foliage application, plastic box (Table 20, symbol L); format: in vivo, windgrass (Apera spica-venti); conditions: foliage application
In short: as §1

southern crabgrass = experiment: Test Example 5: herbicidal effect by foliage application, plastic box (Table 20, symbol F); format: in vivo, southern crabgrass (Digitaria ciliaris); conditions: foliage application
In short: as §1

barnyard grass [1] = experiment: Test Example 5: herbicidal effect by foliage application, plastic box (Table 20, symbol H); format: in vivo, barnyard grass (Echinochloa crus-galli); conditions: foliage application
In short: as §1

false cleavers = experiment: Test Example 5: herbicidal effect by foliage application, plastic box (Table 20, symbol Q); format: in vivo, false cleavers (Galium spurium); conditions: foliage application
From the text: [Test Example 5] Herbicidal Effect Test by Foliage Application
Sterilized diluvial soil was placed in a plastic box having a length of 21 cm, a width of 13 cm, and a depth of 7 cm. The seeds of each of southern crabgrass, green foxtail, barnyard grass, wild oat, blackgrass, Italian ryegrass, windgrass, velvetleaf, redroot pigweed, lambsquarters, chickweed, false cleavers, persian speedwell, corn, soybean, rice, wheat, beet, and rapeseed were sowed in a spot-like manner and covered with the soil having a thickness of about 1.5 cm. Thereafter, the plants were grown in a greenhouse at 25° C. to 30° C. After 14-day growth of the plants, the emulsion agent of the compound of the present invention prepared according to Formulation Example 2 was diluted with water so as to achieve a predetermined herbicide amount, and the diluted emulsion agent was uniformly applied to a foliage part with a small-sized spray. Three weeks after the herbicide application, the effect of the herbicide on each plant was evaluated according to the criteria of Test Example 1.

blackgrass = experiment: Test Example 5: herbicidal effect by foliage application, plastic box (Table 20, symbol J); format: in vivo, blackgrass (Alopecurus myosuroides); conditions: foliage application
In short: as §1

velvetleaf = experiment: Test Example 5: herbicidal effect by foliage application, plastic box (Table 20, symbol M); format: in vivo, velvetleaf (Abutilon theophrasti); conditions: foliage application
In short: as §1

lambsquarters = experiment: Test Example 5: herbicidal effect by foliage application, plastic box (Table 20, symbol O); format: in vivo, lambsquarters (Chenopodium album); conditions: foliage application
In short: as §1

rice flat sedge = experiment: Test Example 3: herbicidal effect by foliage application, Wagner pot (Table 18, symbol E); format: in vivo, rice flat sedge (Cyperus iria); conditions: 320 g/ha
In short: (§2)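 Plants were sown in alluvial soil held under 0.1–0.5 cm standing water and grown 14 days in a greenhouse at 25–30 °C. An emulsifiable formulation, water-diluted to the set dose, was then sprayed onto the foliage, and effects were scored three weeks later using previously defined criteria.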

wild oat = experiment: Test Example 5: herbicidal effect by foliage application, plastic box (Table 20, symbol I); format: in vivo, wild oat (Avena fatua); conditions: foliage application
In short: as §1

chickweed = experiment: Test Example 5: herbicidal effect by foliage application, plastic box (Table 20, symbol P); format: in vivo, common chickweed (Stellaria media); conditions: foliage application
In short: as §1

Chinese sprangletop = experiment: Test Example 3: herbicidal effect by foliage application, Wagner pot (Table 18, symbol D); format: in vivo, chinese sprangletop (Leptochloa chinensis); conditions: 320 g/ha
In short: as §2

barnyard grass [2] = experiment: Test Example 3: herbicidal effect by foliage application, Wagner pot (Table 18, symbol H); format: in vivo, barnyard grass (Echinochloa crus-galli); conditions: 320 g/ha
In short: as §2

[3] = 320 g/ha, three weeks after application
[4] = AAH 80 g/ha, three weeks after application
[5] = 320 g/ha, evaluated three weeks after application

Structure (SMILES) | herbicidal effect grade, N: redroot pigweed (redroot pigweed; [3]) | herbicidal effect grade, K: Italian ryegrass (Italian ryegrass; [3]) | herbicidal effect grade, G: green foxtail (green foxtail; [3]) | herbicidal effect grade, R: persian speedwell (persian speedwell; [3]) | herbicidal effect grade, L: windgrass (windgrass; [3]) | herbicidal effect grade, F: southern crabgrass (southern crabgrass; [3]) | herbicidal effect grade, H: barnyard grass (barnyard grass [1]; [3]) | herbicidal effect grade, Q: false cleavers (false cleavers; [3]) | herbicidal effect grade, J: blackgrass (blackgrass; [3]) | herbicidal effect grade, M: velvetleaf (velvetleaf; [3]) | herbicidal effect grade, O: lambsquarters (lambsquarters; [3]) | herbicidal effect on E (rice flat sedge), rating 0-5 (rice flat sedge) | herbicidal effect grade, I: wild oat (wild oat; [3]) | herbicidal effect grade, P: chickweed (chickweed; [3]) | herbicidal effect on D (Chinese sprangletop), rating 0-5 (Chinese sprangletop) | herbicidal effect on H (barnyard grass), rating 0-5 (barnyard grass [2]) | also measured
Cc1nn(C)c(=O)c(-c2c(-c3ccccc3O)sc3ccccc23)c1O [1-009] | 0 (Herbicidal rate of 5% or less (almost no effect)) | 0 (Herbicidal rate of 5% or less (almost no effect)) | 3 (Herbicidal rate of 40% or more and less than 70%) | 4 (Herbicidal rate of 70% or more and less than 90%) | 0 (Herbicidal rate of 5% or less (almost no effect)) | 3 (Herbicidal rate of 40% or more and less than 70%) | 2 (Herbicidal rate of 20% or more and less than 40%) | 0 (Herbicidal rate of 5% or less (almost no effect)) | 0 (Herbicidal rate of 5% or less (almost no effect)) | 0 (Herbicidal rate of 5% or less (almost no effect)) | 0 (Herbicidal rate of 5% or less (almost no effect)) | 2 (Herbicidal rate of 20% or more and less than 40%) | 0 (Herbicidal rate of 5% or less (almost no effect)) | 4 (Herbicidal rate of 70% or more and less than 90%) | 2 (Herbicidal rate of 20% or more and less than 40%) | 3 (Herbicidal rate of 40% or more and less than 70%) | –
Cc1nn(C)c(=O)c(-c2c(-c3ccccc3Oc3ccccc3)sc3ccccc23)c1O [1-033] | 0 (Herbicidal rate of 5% or less (almost no effect)) | 0 (Herbicidal rate of 5% or less (almost no effect)) | 0 (Herbicidal rate of 5% or less (almost no effect)) | 3 (Herbicidal rate of 40% or more and less than 70%) | 0 (Herbicidal rate of 5% or less (almost no effect)) | 3 (Herbicidal rate of 40% or more and less than 70%) | 2 (Herbicidal rate of 20% or more and less than 40%) | 4 (Herbicidal rate of 70% or more and less than 90%) | 0 (Herbicidal rate of 5% or less (almost no effect)) | 0 (Herbicidal rate of 5% or less (almost no effect)) | 0 (Herbicidal rate of 5% or less (almost no effect)) | 1 (Herbicidal rate of 5% or more and less than 20%) | 0 (Herbicidal rate of 5% or less (almost no effect)) | 1 (Herbicidal rate of 5% or more and less than 20%) | 0 (Herbicidal rate of 5% or less (almost no effect)) | 1 (Herbicidal rate of 5% or more and less than 20%) | –
CSc1cc(F)ccc1-c1sc2ccccc2c1-c1c(O)c(C)nn(C)c1=O [1-063] | 0 (Herbicidal rate of 5% or less (almost no effect)) | 1 (Herbicidal rate of 5% or more and less than 20%) | 0 (Herbicidal rate of 5% or less (almost no effect)) | 4 (Herbicidal rate of 70% or more and less than 90%) | – | 0 (Herbicidal rate of 5% or less (almost no effect)) | 0 (Herbicidal rate of 5% or less (almost no effect)) | 2 (Herbicidal rate of 20% or more and less than 40%) | 3 (Herbicidal rate of 40% or more and less than 70%) | 0 (Herbicidal rate of 5% or less (almost no effect)) | 3 (Herbicidal rate of 40% or more and less than 70%) | 3 (Herbicidal rate of 40% or more and less than 70%) | 2 (Herbicidal rate of 20% or more and less than 40%) | 5 (Herbicidal rate of 90% or more (almost completely withered)) | 0 (Herbicidal rate of 5% or less (almost no effect)) | 2 (Herbicidal rate of 20% or more and less than 40%) | –
CCCC(=O)Oc1c(OC)nn(C)c(=O)c1-c1c(-c2ccc(-c3ccccc3)cc2)sc2ccccc12 [1-167] | – | – | – | – | – | – | – | – | – | – | – | – | – | – | – | – | N: redroot pigweed, herbicidal effect (redroot pigweed; [4]): 3 (Herbicidal rate of 40% or more and less than 70%); K: Italian ryegrass, herbicidal effect (Italian ryegrass; [4]): 0 (Herbicidal rate of 5% or less (almost no effect)); G: green foxtail, herbicidal effect (green foxtail; [4]): 0 (Herbicidal rate of 5% or less (almost no effect)); R: persian speedwell, herbicidal effect (persian speedwell; [4]): 3 (Herbicidal rate of 40% or more and less than 70%); L: windgrass, herbicidal effect (windgrass; [4]): 0 (Herbicidal rate of 5% or less (almost no effect)); F: southern crabgrass, herbicidal effect (southern crabgrass; [4]): 0 (Herbicidal rate of 5% or less (almost no effect)); H: barnyard grass, herbicidal effect (barnyard grass [1]; [4]): 0 (Herbicidal rate of 5% or less (almost no effect)); Q: false cleavers, herbicidal effect (false cleavers; [4]): 3 (Herbicidal rate of 40% or more and less than 70%); J: blackgrass, herbicidal effect (blackgrass; [4]): 0 (Herbicidal rate of 5% or less (almost no effect)); M: velvetleaf, herbicidal effect (velvetleaf; [4]): 0 (Herbicidal rate of 5% or less (almost no effect)); O: lambsquarters, herbicidal effect (lambsquarters; [4]): 2 (Herbicidal rate of 20% or more and less than 40%); I: wild oat, herbicidal effect (wild oat; [4]): 0 (Herbicidal rate of 5% or less (almost no effect)); P: chickweed, herbicidal effect (chickweed; [4]): 1 (Herbicidal rate of 5% or more and less than 20%)
CCCC(=O)Oc1c(C)nn(C)c(=O)c1-c1c(-c2ccc(OC)c(C)c2)sc2ccc(Cl)cc12 [2-120] | – | – | – | – | – | – | – | – | – | – | – | – | – | – | – | – | herbicidal effect on N: redroot pigweed (redroot pigweed; [5]): 0 (Herbicidal rate of 5% or less (almost no effect)); herbicidal effect on K: Italian ryegrass (Italian ryegrass; [5]): 0 (Herbicidal rate of 5% or less (almost no effect)); herbicidal effect on G: green foxtail (green foxtail; [5]): 0 (Herbicidal rate of 5% or less (almost no effect)); herbicidal effect on R: persian speedwell (persian speedwell; [5]): 5 (Herbicidal rate of 90% or more (almost completely withered)); herbicidal effect on L: windgrass (windgrass; [5]): 0 (Herbicidal rate of 5% or less (almost no effect)); herbicidal effect on F: southern crabgrass (southern crabgrass; [5]): 0 (Herbicidal rate of 5% or less (almost no effect)); herbicidal effect on H: barnyard grass (barnyard grass [1]; [5]): 0 (Herbicidal rate of 5% or less (almost no effect)); herbicidal effect on Q: false cleavers (false cleavers; [5]): 4 (Herbicidal rate of 70% or more and less than 90%); herbicidal effect on J: blackgrass (blackgrass; [5]): 0 (Herbicidal rate of 5% or less (almost no effect)); herbicidal effect on M: velvetleaf (velvetleaf; [5]): 0 (Herbicidal rate of 5% or less (almost no effect)); herbicidal effect on O: lambsquarters (lambsquarters; [5]): 0 (Herbicidal rate of 5% or less (almost no effect)); herbicidal effect on I: wild oat (wild oat; [5]): 0 (Herbicidal rate of 5% or less (almost no effect)); herbicidal effect on P: chickweed (chickweed; [5]): 5 (Herbicidal rate of 90% or more (almost completely withered))
CCOc1ccccc1-c1cc2c(-c3c(O)c(C)nn(C)c3=O)c(-c3ccccc3OCC)sc2cc1OC [5-079] | – | – | – | – | – | – | – | – | – | – | – | – | – | – | – | – | herbicidal effect on Italian ryegrass (K) (Italian ryegrass; [3]): 0 (Herbicidal rate of 5% or less (almost no effect)); herbicidal effect on green foxtail (G) (green foxtail; [3]): 0 (Herbicidal rate of 5% or less (almost no effect)); herbicidal effect on persian speedwell (R) (persian speedwell; [3]): 0 (Herbicidal rate of 5% or less (almost no effect)); herbicidal effect on windgrass (L) (windgrass; [3]): 0 (Herbicidal rate of 5% or less (almost no effect)); herbicidal effect on southern crabgrass (F) (southern crabgrass; [3]): 0 (Herbicidal rate of 5% or less (almost no effect)); herbicidal effect on barnyard grass (H) (barnyard grass [1]; [3]): 0 (Herbicidal rate of 5% or less (almost no effect)); herbicidal effect on false cleavers (Q) (false cleavers; [3]): 5 (Herbicidal rate of 90% or more (almost completely withered)); herbicidal effect on blackgrass (J) (blackgrass; [3]): 0 (Herbicidal rate of 5% or less (almost no effect)); herbicidal effect on velvetleaf (M) (velvetleaf; [3]): 0 (Herbicidal rate of 5% or less (almost no effect)); herbicidal effect on lambsquarters (O) (lambsquarters; [3]): 0 (Herbicidal rate of 5% or less (almost no effect)); herbicidal effect on rice flat sedge (E) (rice flat sedge): 0 (Herbicidal rate of 5% or less (almost no effect)); herbicidal effect on wild oat (I) (wild oat; [3]): 0 (Herbicidal rate of 5% or less (almost no effect)); herbicidal effect on Chinese sprangletop (D) (Chinese sprangletop): 0 (Herbicidal rate of 5% or less (almost no effect)); herbicidal effect on barnyard grass (H) (barnyard grass [2]): 3 (Herbicidal rate of 40% or more and less than 70%)

Reference: patent US20230085307A1, “PYRIDAZINONE COMPOUND AND HERBICIDE” (NISSAN CHEMICAL CORPORATION, priority 2019, published 2023)
